MIC, Selectivity ratio and IC50 data for 26 compounds are collected here from ChEMBL document CHEMBL1949543, “Synthesis and evaluation of novel monosubstituted sulfonylurea derivatives as antituberculosis agents” (Eur J Med Chem, 2012).

Converted amounts (≈) assume the structure as drawn.

The test system of experiment [1] is Mycobacterium tuberculosis. Put plainly: Antituberculosis activity against Mycobacterium tuberculosis H37Rv ATCC 27294. The class given is functional.
Experiment [2] in a line: Selectivity ratio of IC50 for human THP1 cells to MIC for Mycobacterium tuberculosis isolate A. The class given is functional, THP-1.
The subject of experiment [3] is Mycobacterium tuberculosis. Put plainly: Antituberculosis activity against Mycobacterium tuberculosis isolate A. The class given is functional.
The test system of the next experiment is Mycobacterium kansasii. Put plainly: Antituberculosis activity against Mycobacterium kansasii ATCC 12478. The class given is functional.
A short description of experiment [4]: Selectivity ratio of IC50 for human THP1 cells to MIC for Mycobacterium tuberculosis H37Rv ATCC 27294. The class given is functional, THP-1.
The subject of another experiment is Mycobacterium avium. Put plainly: Antituberculosis activity against Mycobacterium avium ATCC 25291. The class given is functional, Mycobacterium avium subsp. avium ATCC 25291.
For the next experiment, the system named is THP-1. Put plainly: Cytotoxicity against human THP1 cells after 72 hrs by MTT assay. The class given is cell-based. Particulars: THP-1, 72 h. On the technique in general: Tetrazolium dyes change colour on reduction, which living cells bring about.

As for `CC(=O)Nc1ccc(Cl)c(S(=O)(=O)NC(=O)Nc2nccc(C)n2)c1`, in experiment [1], the MIC – broadly, the least concentration at which growth counts as inhibited – is greater than 100 µg/mL.

`Cc1ccnc(NC(=O)NS(=O)(=O)c2cc(NC(=O)CCl)ccc2Cl)n1`: the MIC in experiment [1] was 10 µg/mL (≈ 23.9 µM); in experiment [3], 10 µg/mL (≈ 23.9 µM); with Mycobacterium kansasii, 20 µg/mL (≈ 47.8 µM); against Mycobacterium avium, greater than 100 µg/mL. The Selectivity ratio in experiment [2] and in experiment [4] was 10 each time. 138 µg/mL (≈ 330 µM) corresponded to half-maximal inhibition in the experiment on THP-1 (IC50). In turn, `Cc1ccnc(NC(=O)NS(=O)(=O)c2cc(NC(=O)C(C)C)ccc2Cl)n1` showed an MIC in experiment [1] greater than 100 µg/mL. `Cc1ccnc(NC(=O)NS(=O)(=O)c2cc(NC(=O)C3CC3)ccc2Cl)n1` showed an MIC in experiment [1] greater than 100 µg/mL. On the same count and under the same terms, the same measure for `Cc1ccnc(NC(=O)NS(=O)(=O)c2cc(NC(=O)C(C)(C)C)ccc2Cl)n1`: greater than 100 µg/mL. Compound `C=CC(=O)Nc1ccc(Cl)c(S(=O)(=O)NC(=O)Nc2nccc(C)n2)c1` returned an MIC in experiment [1] of 20 µg/mL (≈ 50.5 µM).

In the case of `Cc1ccnc(NC(=O)NS(=O)(=O)c2cc(NC(=O)C(C)Cl)ccc2Cl)n1` (stereo not drawn), the MIC in experiment [1] was greater than 100 µg/mL. For `CC(=O)OCC(=O)Nc1ccc(Cl)c(S(=O)(=O)NC(=O)Nc2nccc(C)n2)c1`, the MIC in experiment [1] is greater than 100 µg/mL.

`CCOC(=O)C(=O)Nc1ccc(Cl)c(S(=O)(=O)NC(=O)Nc2nccc(C)n2)c1` gave an MIC in experiment [1] greater than 100 µg/mL. In experiment [1], `Cc1ccnc(NC(=O)NS(=O)(=O)c2cc(NC(=O)C(F)(F)C(F)(F)C(F)(F)F)ccc2Cl)n1` gave an MIC greater than 100 µg/mL.

`Cc1ccnc(NC(=O)NS(=O)(=O)c2cc(NC(=O)c3ccccc3)ccc2Cl)n1` yielded an MIC in experiment [1] of 100 µg/mL (≈ 224 µM).

In experiment [1], `Cc1ccnc(NC(=O)NS(=O)(=O)c2cc(NC(=O)C(F)(F)F)ccc2Cl)n1` displayed an MIC greater than 100 µg/mL. `Cc1ccnc(NC(=O)NS(=O)(=O)c2cc(NC=O)ccc2Cl)n1` returned an MIC in experiment [1] greater than 100 µg/mL. Still for that read-out and setting: the same measure for `COc1ccnc(NC(=O)NS(=O)(=O)c2cc(NC(C)=O)ccc2Cl)n1`: greater than 100 µg/mL. For `COc1ccnc(NC(=O)NS(=O)(=O)c2cc(NC(=O)CCl)ccc2Cl)n1`, the MIC in experiment [1] is 10 µg/mL (≈ 23 µM); in experiment [3], 10 µg/mL (≈ 23 µM); in the experiment on Mycobacterium kansasii, 20 µg/mL (≈ 46.1 µM); against Mycobacterium avium it was greater than 100 µg/mL. Besides, the Selectivity ratio in experiment [2] and in experiment [4] was 10 in each case. Besides, in the experiment with THP-1, half-maximal inhibition (IC50) was put at 180 µg/mL (≈ 414 µM). Regarding `COc1ccnc(NC(=O)NS(=O)(=O)c2cc(NC(=O)C(C)C)ccc2Cl)n1`, the MIC in experiment [1] is greater than 100 µg/mL. Still for that read-out and setting: the same measure for `COc1ccnc(NC(=O)NS(=O)(=O)c2cc(NC(=O)C3CC3)ccc2Cl)n1`: greater than 100 µg/mL; for `COc1ccnc(NC(=O)NS(=O)(=O)c2cc(NC(=O)C(C)(C)C)ccc2Cl)n1`: greater than 100 µg/mL. Same read-out and setting: the same measure for `C=CC(=O)Nc1ccc(Cl)c(S(=O)(=O)NC(=O)Nc2nccc(OC)n2)c1`: 40 µg/mL (≈ 97.1 µM); for `COc1ccnc(NC(=O)NS(=O)(=O)c2cc(NC(=O)C(C)Cl)ccc2Cl)n1` (stereo not drawn): greater than 100 µg/mL.

For `COc1ccnc(NC(=O)NS(=O)(=O)c2cc(NC(=O)COC(C)=O)ccc2Cl)n1`, the minimal inhibitory concentration (MIC) in experiment [1] is greater than 100 µg/mL.

In the case of `CCOC(=O)C(=O)Nc1ccc(Cl)c(S(=O)(=O)NC(=O)Nc2nccc(OC)n2)c1`, the MIC in experiment [1] was greater than 100 µg/mL. The same measure, in the same setting: to `COc1ccnc(NC(=O)NS(=O)(=O)c2cc(NC(=O)C(F)(F)C(F)(F)C(F)(F)F)ccc2Cl)n1` belongs greater than 100 µg/mL; to `COc1ccnc(NC(=O)NS(=O)(=O)c2cc(NC(=O)C(F)(F)F)ccc2Cl)n1`, greater than 100 µg/mL; to `COc1ccnc(NC(=O)NS(=O)(=O)c2cc(NC=O)ccc2Cl)n1`, greater than 100 µg/mL. `COC(=O)c1ccccc1S(=O)(=O)NC(=O)Nc1nc(C)cc(C)n1` [SULFOMETURON METHYL] displayed an MIC in experiment [1] of 10 µg/mL (≈ 27.4 µM).
